Columns and labels:
[1] = target: BuChE from human serum (hBuChE) (Homo sapiens, UniProt P06276); experiment: biochemical; format: biochemical; conditions: for IC50: read-out: IC50 (µM) ± SEM hBuChE
[2] = target: human recombinant AChE (hAChE) (Homo sapiens, UniProt P22303); experiment: biochemical; format: biochemical; conditions: for SI: selectivity index for AChE: calculated as IC50 hBuChE/hAChE ratio; for IC50: read-out: IC50 (µM) ± SEM hAChE
SH-SY5Y cells [3] = experiment: Glutathione (GSH) levels (MCB probe); format: cell-based, human; conditions: 1.25 µM compound for 24 h, vs. control
SH-SY5Y cells [4] = experiment: Neuroprotective activity toward Aβ1–42 oligomers, MTT formazan exocytosis assay; format: cell-based, human; conditions: 1.25 µM compound with OAβ1–42 10 µM for 4 h
SH-SY5Y cells [5] = format: cell-based; conditions: 24 h treatment, 2.5–80 µM tested, MTT assay, SH-SY5Y cells (data not shown)
SH-SY5Y cells [6] = experiment: Antioxidant activity, ROS formation induced by t-BuOOH (H2DCF-DA probe); format: cell-based; conditions: Homo sapiens, 1.25 µM compound for 24 h, then t-BuOOH 100 µM for 30 min, read-out: inhibition percentage in ROS formation induced by t-BuOOH
[7] = BuChE from human serum, 20 min preincubation at 37 °C, pH 8.0, n.a. = not active, inhibition lower than 15% at the highest tested concentration
[8] = human recombinant AChE, 20 min preincubation at 37 °C, pH 8.0, n.a. = not active, inhibition lower than 15% at the highest tested concentration

Sequence of human recombinant AChE (hAChE) (P22303 32-614): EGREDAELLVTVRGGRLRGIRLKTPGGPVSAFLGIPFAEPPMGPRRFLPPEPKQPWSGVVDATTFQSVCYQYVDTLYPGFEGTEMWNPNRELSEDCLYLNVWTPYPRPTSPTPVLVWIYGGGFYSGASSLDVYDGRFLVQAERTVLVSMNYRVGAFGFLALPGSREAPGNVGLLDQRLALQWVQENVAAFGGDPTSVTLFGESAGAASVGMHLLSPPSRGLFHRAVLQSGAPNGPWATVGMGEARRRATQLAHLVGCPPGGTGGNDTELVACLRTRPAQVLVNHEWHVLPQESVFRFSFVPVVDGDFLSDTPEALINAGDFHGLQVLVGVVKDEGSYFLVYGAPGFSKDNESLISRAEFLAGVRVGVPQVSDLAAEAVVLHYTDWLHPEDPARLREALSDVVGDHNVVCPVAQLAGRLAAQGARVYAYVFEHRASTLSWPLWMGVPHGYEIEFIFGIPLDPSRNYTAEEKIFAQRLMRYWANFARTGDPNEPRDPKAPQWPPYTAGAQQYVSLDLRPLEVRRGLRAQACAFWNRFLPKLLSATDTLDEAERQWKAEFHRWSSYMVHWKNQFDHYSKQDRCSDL
Sequence of BuChE from human serum (hBuChE) (P06276 29-602): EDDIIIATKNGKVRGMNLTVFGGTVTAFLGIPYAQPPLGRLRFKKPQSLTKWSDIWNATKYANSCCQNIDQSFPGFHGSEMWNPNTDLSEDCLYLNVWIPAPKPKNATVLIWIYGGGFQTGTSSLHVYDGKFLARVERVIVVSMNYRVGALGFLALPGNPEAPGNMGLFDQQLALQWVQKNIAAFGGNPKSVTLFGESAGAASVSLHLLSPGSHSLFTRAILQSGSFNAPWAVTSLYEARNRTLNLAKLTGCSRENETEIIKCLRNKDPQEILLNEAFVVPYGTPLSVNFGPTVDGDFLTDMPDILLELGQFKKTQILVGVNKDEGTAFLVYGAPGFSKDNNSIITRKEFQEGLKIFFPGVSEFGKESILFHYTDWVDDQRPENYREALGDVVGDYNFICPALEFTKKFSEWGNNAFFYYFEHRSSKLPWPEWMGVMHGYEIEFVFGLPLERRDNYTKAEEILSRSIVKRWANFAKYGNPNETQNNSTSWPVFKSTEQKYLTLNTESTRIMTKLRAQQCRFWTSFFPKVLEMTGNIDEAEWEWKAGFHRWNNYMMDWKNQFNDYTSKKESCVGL

Compound: CCN(CC)Cc1ccc(C(=O)C=Cc2ccc(OCCCCCCCN(C)Cc3ccccc3)cc2)cc1 [compound 1, 3-(4-((7-(Benzyl(methyl)amino)heptyl)oxy)phenyl)-1-(4-((diethylamino)methyl)phenyl)prop-2-en-1-one]
- IC50 [1, 7]: 8.83 ± 0.58 µM
- SI: selectivity index for AChE [2]: 3.14
- IC50 [2, 8]: 2.81 ± 0.29 µM
- fold increase in hAChE inhibitory activity ([2]; methylendiethylamino group in place of the methoxy group (compounds 2, 12)): 35 fold

Compound: CN(CCCCCCCOc1ccc(C=CC(=O)c2ccc(OCCN3CCC(O)(c4ccc(Cl)cc4)CC3)cc2)cc1)Cc1ccccc1 [compound 11, 3-(4-((7-(Benzyl(methyl)amino)heptyl)oxy)phenyl)-1-(4-(2-(4-(4-chlorophenyl)-4-hydroxypiperidin-1-yl)ethoxy)phenyl)prop-2-en-1-one]
- IC50 (µM) ± SEM hBuChE ([1]; pH 8): inactive
- IC50 (µM) ± SEM hAChE ([2]; pH 8): inactive

Compound: CCN(CC)CCCOc1ccc(C(=O)CCc2ccc(OCCCCCCCN(C)Cc3ccccc3)cc2)cc1 [compound 17, 3-(4-((7-(Benzyl(methyl)amino)heptyl)oxy)phenyl)-1-(4-(3-(diethylamino)propoxy)phenyl)-propan-1-one]
- effect on GSH levels (SH-SY5Y cells [3]): significantly increased GSH levels
- neuroprotective activity toward OAβ1–42 induced toxicity (neuronal viability) (SH-SY5Y cells [4]): No neuroprotective effect
- concentrations that did not affect neuronal viability (SH-SY5Y cells [5]): up to 2.5 µM
- IC50 [1, 7]: 5.04 ± 0.3 µM
- inhibition at 1.25 µM (SH-SY5Y cells [6]): 23%
- SI: selectivity index for AChE [2]: 3.04
- IC50 [2, 8]: 1.66 ± 0.09 µM

Compound: CCN(CC)CCCCOc1ccc(C(=O)C=Cc2ccc(OCCCCCCCN(C)Cc3ccccc3)cc2)cc1 [compound 5, 3-(4-((7-(Benzyl(methyl)amino)heptyl)oxy)phenyl)-1-(4-(4-(diethylamino)butoxy)phenyl)prop-2-en-1-one]
- IC50 [1, 7]: 3.7 ± 0.08 µM
- SI: selectivity index for AChE [2]: 3.5
- IC50 [2, 8]: 1.06 ± 0.08 µM

Compound: COc1ccc(C(=O)C=Cc2ccc(OCCCCCCCN(C)Cc3ccccc3)cc2)cc1 [compound 2, 3-(4-((7-(Benzyl(methyl)amino)heptyl)oxy)phenyl)-1-(4-methoxyphenyl)prop-2-en-1-one]
- effect on GSH levels (SH-SY5Y cells [3]): decreased GSH basal levels
- neuroprotective activity toward OAβ1–42 induced toxicity (neuronal viability) (SH-SY5Y cells [4]): reinforced the neurotoxic effects
- concentrations that did not affect neuronal viability (SH-SY5Y cells [5]): up to 2.5 µM
- IC50 [1, 7]: 2.85 ± 0.7 µM
- inhibition at 1.25 µM (SH-SY5Y cells [6]): 16%
- SI: selectivity index for AChE [2]: 0.03
- IC50 [2, 8]: 98.5 ± 8.8 µM

Compound: CCN(CC)CCCCOc1ccc(C(=O)CCc2ccc(OCCCCCCCN(C)Cc3ccccc3)cc2)cc1 [compound 18, 3-(4-((7-(Benzyl(methyl)amino)heptyl)oxy)phenyl)-1-(4-(4-(diethylamino)butoxy)phenyl)-propan-1-one]
- IC50 [1, 7]: 12.4 ± 2.4 µM
- SI: selectivity index for AChE [2]: 5.04
- IC50 [2, 8]: 2.46 ± 0.11 µM

Compound: CN(CCCCCCCOc1ccc(C=CC(=O)c2ccc(OCCN3CCOCC3)cc2)cc1)Cc1ccccc1 [compound 6, 3-(4-((7-(Benzyl(methyl)amino)heptyl)oxy)phenyl)-1-(4-(2-morpholinoethoxy)phenyl)prop-2-en-1-one]
- IC50 [1, 7]: 11 ± 0.5 µM
- SI: selectivity index for AChE [2]: 0.021
- IC50 [2, 8]: 511 ± 37 µM
- fold worse hAChE inhibition than compound 7 ([2]; morpholino vs piperidine derivative): about 500 fold

Compound: CCN(CC)CCOc1ccc(C(=O)CCc2ccc(OCCCCCCCN(C)Cc3ccccc3)cc2)cc1 [compound 16, 3-(4-((7-(Benzyl(methyl)amino)heptyl)oxy)phenyl)-1-(4-(2-(diethylamino)ethoxy)phenyl)-propan-1-one]
- IC50 [1, 7]: 20.2 ± 1.7 µM
- SI: selectivity index for AChE [2]: 3.25
- IC50 [2, 8]: 6.21 ± 0.32 µM

Compound: CCN(CC)CCOc1ccc(C(=O)C=Cc2ccc(OCCCCCCCN(C)Cc3ccccc3)cc2)cc1 [compound 3, 3-(4-((7-(Benzyl(methyl)amino)heptyl)oxy)phenyl)-1-(4-(2-(diethylamino)ethoxy)phenyl)-prop-2-en-1-one]
- IC50 [1, 7]: 19.9 ± 5.5 µM
- SI: selectivity index for AChE [2]: 28.4
- IC50 [2, 8]: 0.7 ± 0.09 µM

Compound: CN(CCCCCCCOc1ccc(C=CC(=O)c2ccc(OCCN3CCc4ccccc4C3)cc2)cc1)Cc1ccccc1 [compound 8, 3-(4-((7-(Benzyl(methyl)amino)heptyl)oxy)phenyl)-1-(4-(2-(3,4-dihydroisoquinolin-2(1H)-yl)ethoxy)phenyl)prop-2-en-1-one]
- IC50 [1, 7]: 3.87 ± 0.3 µM
- SI: selectivity index for AChE [2]: 0.23
- IC50 [2, 8]: 16.5 ± 2.6 µM

Compound: CCN(CC)CCOc1cccc(C(=O)C=Cc2ccc(OCCCCCCCN(C)Cc3ccccc3)cc2)c1 [compound 13, 3-(4-((7-(Benzyl(methyl)amino)heptyl)oxy)phenyl)-1-(3-(2-(diethylamino)ethoxy)phenyl)-prop-2-en-1-one]
- IC50 [1, 7]: 0.92 ± 0.04 µM
- SI: selectivity index for AChE [2]: 0.62
- IC50 [2, 8]: 1.47 ± 0.11 µM

Compound: COc1cccc(C(=O)C=Cc2ccc(OCCCCCCCN(C)Cc3ccccc3)cc2)c1 [compound 12, 3-(4-((7-(Benzyl(methyl)amino)heptyl)oxy)phenyl)-1-(3-methoxyphenyl)prop-2-en-1-one]
- IC50 [1, 7]: 8.58 ± 0.35 µM
- SI: selectivity index for AChE [2]: 0.08
- IC50 [2, 8]: 105 ± 17 µM

Compound: CCN(CC)CCCOc1cccc(C(=O)C=Cc2ccc(OCCCCCCCN(C)Cc3ccccc3)cc2)c1 [compound 14, 3-(4-((7-(Benzyl(methyl)amino)heptyl)oxy)phenyl)-1-(3-(3-(diethylamino)propoxy)phenyl)-prop-2-en-1-one]
- IC50 [1, 7]: 1.82 ± 0.05 µM
- SI: selectivity index for AChE [2]: 0.31
- IC50 [2, 8]: 5.78 ± 0.67 µM

Compound: CCN(CC)CCCOc1ccc(C(=O)C=Cc2ccc(OCCCCCCCN(C)Cc3ccccc3)cc2)cc1 [compound 4, 3-(4-((7-(Benzyl(methyl)amino)heptyl)oxy)phenyl)-1-(4-(3-(diethylamino)propoxy)phenyl)-prop-2-en-1-one]
- effect on GSH levels (SH-SY5Y cells [3]): significantly increased GSH levels
- neuroprotective activity toward OAβ1–42 induced toxicity (neuronal viability) (SH-SY5Y cells [4]): partially counteracted the neurotoxic effects
- concentrations that did not affect neuronal viability (SH-SY5Y cells [5]): up to 2.5 µM
- IC50 [1, 7]: 2.38 ± 0.05 µM
- inhibition at 1.25 µM (SH-SY5Y cells [6]): 27%
- SI: selectivity index for AChE [2]: 2.6
- IC50 [2, 8]: 0.92 ± 0.07 µM

Compound: CN(CCCCCCCOc1ccc(C=CC(=O)c2ccc(OCCN3CCCCC3)cc2)cc1)Cc1ccccc1 [compound 7, 3-(4-((7-(Benzyl(methyl)amino)heptyl)oxy)phenyl)-1-(4-(2-(piperidin-1-yl)ethoxy)phenyl)prop-2-en-1-one]
- IC50 [1, 7]: 19.7 ± 0.6 µM
- SI: selectivity index for AChE [2]: 15.8
- IC50 [2, 8]: 1.25 ± 0.06 µM

Compound: CN(CCCCCCCOc1ccc(C=CC(=O)c2ccc(OCCN3CCC(c4ccccc4)CC3)cc2)cc1)Cc1ccccc1 [compound 10, 3-(4-((7-(Benzyl(methyl)amino)heptyl)oxy)phenyl)-1-(4-(2-(4-phenylpiperidin-1-yl)ethoxy)-phenyl)prop-2-en-1-one]
- IC50 (µM) ± SEM hBuChE [1, 7]: inactive
- IC50 (µM) ± SEM hAChE [2, 8]: inactive

Compound: CN(CCCCCCCOc1ccc(C=CC(=O)c2ccc(OCCN3CCC(n4c(=O)[nH]c5ccccc54)CC3)cc2)cc1)Cc1ccccc1 [compound 9, 1-(1-(2-(4-(3-(4-((7-(Benzyl(methyl)amino)heptyl)oxy)phenyl)acryloyl)phenoxy)ethyl)-piperidin-4-yl)-1,3-dihydro-2H-benzo[d]imidazol-2-one]
- IC50 [1, 7]: 3.93 ± 0.2 µM
- SI: selectivity index for AChE [2]: 0.29
- IC50 [2, 8]: 13.5 ± 2.3 µM
